Tests used:
Test in all cases: relative viability (nuclei count vs DMSO), 5 days (fraction); higher = more cells survive
[1] = system: RERF-LC-KJ
Summary of the method: (§1)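 One day after seeding in 1536-well plates, lung cancer cell lines were dosed by pin tool. Dosing was either single-drug or a fixed anchor-drug dose plus five library-drug doses (not always all listed) in √10 steps. After 5 days, nuclei were stained in one fix-and-stain step and counted on 4× images, and relative viability is the nuclei count of treated wells over that of vehicle wells, given as the median of duplicate plates.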

[2] = system: NCI-H460
Summary of the method: as §1

[3] = system: NCI-H647
Summary of the method: as §1

[4] = system: NCI-H2342
Summary of the method: as §1

[5] = system: NCI-H1734
Summary of the method: as §1

[6] = system: HOP-62
Summary of the method: as §1

[7] = system: A-427
Summary of the method: as §1

[8] = system: LC-2-ad
Summary of the method: as §1

[9] = system: NCI-H2347
Summary of the method: as §1

[10] = system: SW 1573
Summary of the method: as §1

[11] = system: NCI-H2228
Summary of the method: as §1

[12] = system: HCC-78
Summary of the method: as §1

[13] = system: NCI-H2126
Summary of the method: as §1

[14] = system: NCI-H1915
Summary of the method: as §1

[15] = system: SK-LU-1
Summary of the method: as §1

[16] = system: LXF-289
Summary of the method: as §1

[17] = system: HCC-15
Summary of the method: as §1

[18] = system: NCI-H1755
Summary of the method: as §1

[19] = system: NCI-H1975
Summary of the method: as §1

[20] = system: PC-3 [JPC-3]
Summary of the method: as §1

[21] = system: NCI-H522
Summary of the method: as §1

[22] = system: LOU-NH91
Summary of the method: as §1

[23] = system: NCI-H358
Summary of the method: as §1

`CC(C)Oc1cc(Nc2nc(N[C@@H](C)c3ccc(F)cn3)ncc2Cl)n[nH]1` [AZ23] + Cc1cc(Nc2cc(N3CCN(C)CC3)nc(Sc3ccc(NC(=O)C4CC4)cc3)n2)n[nH]1 [Tozasertib] (partner 0.1 µM) gave a relative viability ([1]; first compound 0.01 µM) of 0.532, a relative viability ([1]; first compound 0.03162 µM) of 0.569 and a relative viability ([1]; first compound 0.3162 µM) of 0.572. It also gave a relative viability ([2]; first compound 0.01 µM) of 0.184, a relative viability ([2]; first compound 0.03162 µM) of 0.518 and a relative viability ([2]; first compound 0.3162 µM) of 0.566. It also gave a relative viability ([3]; first compound 0.01 µM) of 0.146, a relative viability ([3]; first compound 0.03162 µM) of 0.449 and a relative viability ([3]; first compound 0.3162 µM) of 0.261. The relative viability ([4]; first compound 0.01 µM) was 0.482, the relative viability ([4]; first compound 0.03162 µM) was 0.483 and the relative viability ([4]; first compound 0.3162 µM) was 0.455. The relative viability ([5]; first compound 0.01 µM) was 0.252, the relative viability ([5]; first compound 0.03162 µM) was 0.289 and the relative viability ([5]; first compound 0.3162 µM) was 0.276. For the same compound, the relative viability ([6]; first compound 0.01 µM) was 0.352, the relative viability ([6]; first compound 0.03162 µM) was 0.424 and the relative viability ([6]; first compound 0.3162 µM) was 0.37. It also gave a relative viability ([7]; first compound 0.01 µM) of 0.174, a relative viability ([7]; first compound 0.03162 µM) of 0.193 and a relative viability ([7]; first compound 0.3162 µM) of 0.177. For the same compound, the relative viability ([8]; first compound 0.01 µM) was 0.467, the relative viability ([8]; first compound 0.03162 µM) was 0.446 and the relative viability ([8]; first compound 0.3162 µM) was 0.452. The relative viability ([9]; first compound 0.01 µM) was 0.645, the relative viability ([9]; first compound 0.03162 µM) was 0.609 and the relative viability ([9]; first compound 0.3162 µM) was 0.604. For the same compound, the relative viability ([10]; first compound 0.01 µM) was 0.168, the relative viability ([10]; first compound 0.03162 µM) was 0.151 and the relative viability ([10]; first compound 0.3162 µM) was 0.17. For the same compound, the relative viability ([11]; first compound 0.01 µM) was 0.219, the relative viability ([11]; first compound 0.03162 µM) was 0.247 and the relative viability ([11]; first compound 0.3162 µM) was 0.265. The relative viability ([12]; first compound 0.01 µM) was 0.344, the relative viability ([12]; first compound 0.03162 µM) was 0.482 and the relative viability ([12]; first compound 0.3162 µM) was 0.334. The relative viability ([13]; first compound 0.01 µM) was 0.923, the relative viability ([13]; first compound 0.03162 µM) was 0.939 and the relative viability ([13]; first compound 0.3162 µM) was 0.892. The relative viability ([14]; first compound 0.01 µM) was 0.479, the relative viability ([14]; first compound 0.03162 µM) was 0.507 and the relative viability ([14]; first compound 0.3162 µM) was 0.514. The relative viability ([15]; first compound 0.03162 µM) was 0.382, the relative viability ([15]; first compound 0.3162 µM) was 0.335 and the relative viability ([16]; first compound 0.01 µM) was 0.222. It also gave a relative viability ([16]; first compound 0.03162 µM) of 0.205, a relative viability ([16]; first compound 0.3162 µM) of 0.204 and a relative viability ([17]; first compound 0.01 µM) of 0.513. The relative viability ([17]; first compound 0.03162 µM) was 0.498, the relative viability ([17]; first compound 0.3162 µM) was 0.631 and the relative viability ([18]; first compound 0.01 µM) was 0.556. It also gave a relative viability ([18]; first compound 0.03162 µM) of 0.613, a relative viability ([18]; first compound 0.3162 µM) of 0.664 and a relative viability ([19]; first compound 0.01 µM) of 0.836. It also gave a relative viability ([19]; first compound 0.03162 µM) of 0.977, a relative viability ([19]; first compound 0.3162 µM) of 0.744 and a relative viability ([20]; first compound 0.01 µM) of 1.03. For the same compound, the relative viability ([20]; first compound 0.03162 µM) was 0.87, the relative viability ([20]; first compound 0.3162 µM) was 0.959 and the relative viability ([21]; first compound 0.01 µM) was 0.519. The relative viability ([21]; first compound 0.03162 µM) was 0.567, the relative viability ([21]; first compound 0.3162 µM) was 0.65 and the relative viability ([22]; first compound 0.01 µM) was 0.641. For the same compound, the relative viability ([22]; first compound 0.03162 µM) was 0.72, the relative viability ([22]; first compound 0.3162 µM) was 0.644 and the relative viability ([23]; first compound 0.01 µM) was 0.101. The relative viability ([23]; first compound 0.03162 µM) was 0.114 and the relative viability ([23]; first compound 0.3162 µM) was 0.107.
Compound `CC(C)Oc1cc(Nc2nc(N[C@@H](C)c3ccc(F)cn3)ncc2Cl)n[nH]1` [AZ23] + COc1cc2c(Oc3ccc(NC(=O)C4(C(=O)Nc5ccc(F)cc5)CC4)cc3F)ccnc2cc1OCCCN1CCOCC1 [Foretinib] (partner 0.25 µM) has a relative viability ([1]; first compound 0.01 µM) of 1.09, a relative viability ([1]; first compound 0.03162 µM) of 0.877 and a relative viability ([1]; first compound 0.3162 µM) of 0.852. The relative viability ([2]; first compound 0.01 µM) was 1.12, the relative viability ([2]; first compound 0.03162 µM) was 1.11 and the relative viability ([2]; first compound 0.3162 µM) was 1.05. For the same compound, the relative viability ([3]; first compound 0.01 µM) was 1.24, the relative viability ([3]; first compound 0.03162 µM) was 1.24 and the relative viability ([3]; first compound 0.3162 µM) was 1.44. For the same compound, the relative viability ([4]; first compound 0.01 µM) was 0.974, the relative viability ([4]; first compound 0.03162 µM) was 1.07 and the relative viability ([4]; first compound 0.3162 µM) was 1.05. It also gave a relative viability ([5]; first compound 0.01 µM) of 0.803, a relative viability ([5]; first compound 0.03162 µM) of 0.872 and a relative viability ([5]; first compound 0.3162 µM) of 0.796. The relative viability ([6]; first compound 0.01 µM) was 1.33, the relative viability ([6]; first compound 0.03162 µM) was 1.15 and the relative viability ([6]; first compound 0.3162 µM) was 1.3. It also gave a relative viability ([7]; first compound 0.01 µM) of 1, a relative viability ([7]; first compound 0.03162 µM) of 1.05 and a relative viability ([7]; first compound 0.3162 µM) of 1.07. The relative viability ([8]; first compound 0.01 µM) was 1.07, the relative viability ([8]; first compound 0.03162 µM) was 0.993 and the relative viability ([8]; first compound 0.3162 µM) was 1.02. It also gave a relative viability ([9]; first compound 0.01 µM) of 0.85, a relative viability ([9]; first compound 0.03162 µM) of 0.986 and a relative viability ([9]; first compound 0.3162 µM) of 1.15. The relative viability ([10]; first compound 0.01 µM) was 1.28, the relative viability ([10]; first compound 0.03162 µM) was 1.1 and the relative viability ([10]; first compound 0.3162 µM) was 0.562. It also gave a relative viability ([11]; first compound 0.01 µM) of 1.06, a relative viability ([11]; first compound 0.03162 µM) of 1.26 and a relative viability ([11]; first compound 0.3162 µM) of 0.875. For the same compound, the relative viability ([12]; first compound 0.01 µM) was 0.588, the relative viability ([12]; first compound 0.03162 µM) was 0.52 and the relative viability ([12]; first compound 0.3162 µM) was 0.547. The relative viability ([13]; first compound 0.01 µM) was 1.05, the relative viability ([13]; first compound 0.03162 µM) was 1.21 and the relative viability ([13]; first compound 0.3162 µM) was 1.19. For the same compound, the relative viability ([14]; first compound 0.01 µM) was 1.22, the relative viability ([14]; first compound 0.03162 µM) was 1.14 and the relative viability ([14]; first compound 0.3162 µM) was 1.08. For the same compound, the relative viability ([15]; first compound 0.03162 µM) was 0.969, the relative viability ([15]; first compound 0.3162 µM) was 0.821 and the relative viability ([16]; first compound 0.01 µM) was 1.14. For the same compound, the relative viability ([16]; first compound 0.03162 µM) was 0.977, the relative viability ([16]; first compound 0.3162 µM) was 0.949 and the relative viability ([17]; first compound 0.01 µM) was 1.16. It also gave a relative viability ([17]; first compound 0.03162 µM) of 1.09, a relative viability ([17]; first compound 0.3162 µM) of 1.05 and a relative viability ([18]; first compound 0.01 µM) of 0.949. It also gave a relative viability ([18]; first compound 0.03162 µM) of 0.94, a relative viability ([18]; first compound 0.3162 µM) of 0.958 and a relative viability ([19]; first compound 0.01 µM) of 1.05. It also gave a relative viability ([19]; first compound 0.03162 µM) of 1.14, a relative viability ([19]; first compound 0.3162 µM) of 0.99 and a relative viability ([20]; first compound 0.01 µM) of 1.23. It also gave a relative viability ([20]; first compound 0.03162 µM) of 1.14, a relative viability ([20]; first compound 0.3162 µM) of 0.996 and a relative viability ([22]; first compound 0.01 µM) of 0.941. For the same compound, the relative viability ([22]; first compound 0.03162 µM) was 0.975, the relative viability ([22]; first compound 0.3162 µM) was 0.927 and the relative viability ([23]; first compound 0.01 µM) was 0.786. For the same compound, the relative viability ([23]; first compound 0.03162 µM) was 0.829 and the relative viability ([23]; first compound 0.3162 µM) was 0.727.

From the supplement of paper PMC10307832
